Here are results for 37 molecules from patent US4798905A, “Sulphenylated carbamic acid esters, a process for their preparation and their use” (Bayer Aktiengesellschaft, priority 1984, dated 1989).

In brackets after ≈: the same amount, converted by molar mass.

In the first experiment the test system is Alternaria tenuis. Nature of the experiment: Minimum inhibitory concentration (MIC) in agar, Alternaria tenuis. Type of experiment: cell-based. To be noted: Alternaria alternata, 336 h, 28° C., two weeks. On the procedure: (§1) Active compounds according to the invention are added in concentrations of 0.1 mg/l to 5,000 mg/l to an agar prepared from bierwort and peptone. After being kept at 28° C. and 60 to 70% relative atmospheric humidity for two weeks, the MIC is determined. The MIC is the lowest concentration of active compound at which no growth at all by the species of microbe used takes place, and is shown in the following Table I.
In the case of `COC(=O)N(SC(Cl)(Cl)Cl)c1ccccc1` [Example 41], the MIC came to 0.5 µg/mL (≈ 1.66 µM).
The same measure, in the same setting: the result for `CCOC(=O)N(SC(F)(Cl)Cl)c1cc(Cl)cc(Cl)c1` [Example 23] reads 5 µg/mL (≈ 13.6 µM).

For another experiment, the system named is Aureobasidium pullulans. Nature of the experiment: Minimum inhibitory concentration (MIC) in agar, Aureobasidium pullulans. The class given is cell-based. To be noted: 336 h, 28° C., two weeks. On the procedure: as §1
Regarding `COC(=O)N(SC(Cl)(Cl)Cl)c1ccccc1` [Example 41], the MIC amounted to 1.5 µg/mL (≈ 4.99 µM).
Same read-out and setting: next, `CCOC(=O)N(SC(F)(Cl)Cl)c1cc(Cl)cc(Cl)c1` [Example 23]: 3.5 µg/mL (≈ 9.54 µM).

The test system of a further experiment is Drechslera graminea. The experiment can be described thus: Drechslera graminea test (barley)/seed treatment (syn. Helminthosporium gramineum). The class given is in vivo. The settings on record: seed treatment, 500 mg/kg of seed, about 3 weeks after sowing, undressed 29.7.
For `COC(=O)N(SC(F)(Cl)Cl)c1cc(Cl)cc(Cl)c1` [drawing 31], the “Diseased plants in % of the total plants emerged” value (from here on “Diseased plants in %”) is listed as 0.0%.
On the same count and under the same terms, the result for `COC(=O)N(SC(F)(Cl)Cl)c1ccc(Cl)cc1C` [drawing 29] reads 0.0%; that for `COC(=O)N(SC(F)(Cl)Cl)c1ccccc1`, 3.1%.
On the same count and under the same terms, next, `COC(=O)N(SC(F)(Cl)Cl)c1cccc(C(F)(F)F)c1` [drawing 30]: 0.0%; `COC(=O)N(SC(F)(Cl)Cl)c1ccc(C(F)(F)F)c(Cl)c1` [drawing 32]: 1.0%.
For `COC(=O)N(SC(F)(Cl)Cl)c1ccc(C)c(Cl)c1` [drawing 28], the “Diseased plants in %” value worked out at 3.2%.

Staying with this experiment, now noted: seed treatment, 600 mg/kg of seed, about 3 weeks after sowing, undressed 29.7.
Consider `CN(C)S(=O)(=O)N(SC(F)(Cl)Cl)c1ccccc1` [drawing 27, reference compound], for which the “Diseased plants in %” value is 23.9%.

The next experiment concerns Polyporus versicolor. The experiment can be described thus: Minimum inhibitory concentration (MIC) in agar, Polyporus versicolor. The settings on record: Trametes versicolor, 336 h, 28° C., two weeks. The class given is cell-based. On the procedure:
as §1
Turning to `COC(=O)N(SC(Cl)(Cl)Cl)c1ccccc1` [Example 41], the minimal inhibitory concentration (MIC) turned out to be 1.5 µg/mL (≈ 4.99 µM).
The molecule `CCOC(=O)N(SC(F)(Cl)Cl)c1cc(Cl)cc(Cl)c1` [Example 23] registered an MIC of 2 µg/mL (≈ 5.45 µM).

The subject of a further experiment is Aspergillus niger. Nature of the experiment: Minimum inhibitory concentration (MIC) in agar, Aspergillus niger. The class given is cell-based. To be noted: 336 h, 28° C., two weeks. On the procedure:
as §1
In turn, `COC(=O)N(SC(F)(Cl)Cl)c1ccc(C)c(Cl)c1` [Example 31] showed a minimum inhibitory concentration (MIC) below 20 µg/mL.
Same read-out and setting: next, `COC(=O)N(SC(F)(Cl)Cl)c1cccc(Cl)c1` [Example 9]: below 20 µg/mL; `COC(=O)N(SC(F)(Cl)Cl)c1ccc(Cl)cc1` [Example 1]: below 20 µg/mL.
Same read-out and setting: next, `COC(=O)N(SC(Cl)(Cl)Cl)c1ccccc1` [Example 41]: 5 µg/mL (≈ 16.6 µM); `COC(=O)N(SC(F)(Cl)Cl)c1ccc(Cl)cc1Cl` [Example 16]: below 20 µg/mL; `CCOC(=O)N(SC(F)(Cl)Cl)c1cc(Cl)cc(Cl)c1` [Example 23]: 35 µg/mL (≈ 95.4 µM).
Still for that read-out and setting: the result for `COC(=O)N(SC(F)(Cl)Cl)c1cccc(Cl)c1Cl` [Example 14] reads below 20 µg/mL; that for `COC(=O)N(SC(F)(Cl)Cl)c1ccc(Cl)c(Cl)c1` [Example 18], 35 µg/mL (≈ 99.1 µM); that for `COC(=O)N(SC(F)(Cl)Cl)c1ccc(Cl)cc1C` [Example 29], below 20 µg/mL.

A further experiment relates to Plasmopara viticola. Nature of the experiment: Plasmopara test (vines)/protective. The settings on record: protective, active compound concentration 1 ppm, 7 days after inoculation.
Experimental: Solvent: 4.7 parts by weight of acetone
Emulsifier: 0.3 part by weight of alkylaryl polyglycol ether
After the spray coating has dried on, the plants are inoculated with an aqueous spore suspension of Plasmopara viticola and then remain in a humidity chamber at 20° to 22° C. and 100% relative atmospheric humidity for 1 day. The plants are then placed in a greenhouse at 22° C. and about 80% atmospheric humidity for 5 days. The plants are then moistened and placed in a humidity chamber for 1 day.
(§2) Evaluation is carried out 7 days after the inoculation.
Turning to `O=C(OCc1ccccc1)N(SC(F)(Cl)Cl)c1ccccc1` [drawing 39], the Infestation in % was found to be 47%.

The same experiment, now with this note: protective, active compound concentration 2 ppm, 7 days after inoculation.
Regarding `O=C(OCc1ccccc1)N(SC(F)(Cl)Cl)c1ccccc1` [drawing 39], the Infestation in % worked out at 24%.

The test system of a further experiment is Sclerophoma pityophila. The experiment can be described thus: Minimum inhibitory concentration (MIC) in agar, Sclerophoma pityophila. The class given is cell-based. To be noted: Sydowia polyspora, 336 h, 28° C., two weeks. On the procedure: as §1
Consider `COC(=O)N(SC(Cl)(Cl)Cl)c1ccccc1` [Example 41], for which the MIC came to 1 µg/mL (≈ 3.33 µM).
The same measure, in the same setting: the result for `CCOC(=O)N(SC(F)(Cl)Cl)c1cc(Cl)cc(Cl)c1` [Example 23] reads 1.5 µg/mL (≈ 4.09 µM).

Another experiment deals with Coniophora puteana. Nature of the experiment: Minimum inhibitory concentration (MIC) in agar, Coniophora puteana. Type of experiment: cell-based. The settings on record: 336 h, 28° C., two weeks. On the procedure: as §1
On to `COC(=O)N(SC(Cl)(Cl)Cl)c1ccccc1` [Example 41], for which the MIC is 0.1 µg/mL (≈ 0.333 µM).
For the molecule `CCOC(=O)N(SC(F)(Cl)Cl)c1cc(Cl)cc(Cl)c1` [Example 23], inhibition of growth (MIC) required 1 µg/mL (≈ 2.72 µM).

The subject of the next experiment is Pyrenophora teres. The experiment can be described thus: Pyrenophora teres test (barley)/protective. To be noted: protective, 0.025 % by weight in the spray liquor, 7 days after inoculation.
Experimental: Solvent: 100 parts by weight of dimethylformamide
Emulsifier: 0.25 part by weight of alkylaryl polyglycol ether
After the spray coating has dried on, the plants are sprayed with a conidia suspension of Pyrenophora teres. The plants then remain in an incubation cabin at 20° C. and 100% relative atmospheric humidity for 48 hours.
The plants are placed in a greenhouse at a temperature of about 20° C. and a relative atmospheric humidity of about 80%.
as §2
Take `COC(=O)N(SC(F)(Cl)Cl)c1ccc(Cl)cc1Cl` [drawing 12]: the “Disease infestation in % of the untreated control” value (“Disease infestation in %” for short) is recorded as 37.7%.
Same read-out and setting: the result for `O=C(OCC(Cl)(Cl)Cl)N(SC(F)(Cl)Cl)c1ccc(Cl)cc1` reads 33.7%; that for `COC(=O)N(SC(F)(Cl)Cl)c1cccc(Cl)c1` [drawing 16], 20.3%; that for `COC(=O)N(SC(F)(Cl)Cl)c1cccc(C(F)(F)F)c1` [drawing 14], 30.3%.
Take `CN(C)S(=O)(=O)N(SC(F)(Cl)Cl)c1ccccc1` [drawing 10, reference compound]: the “Disease infestation in %” value is 72.5%.
The same measure, in the same setting: the result for `COc1c(Cl)cc(N(SC(F)(Cl)Cl)C(=O)OC(C)C)cc1Cl` reads 25.0%; that for `COC(=O)N(SC(F)(Cl)Cl)c1ccc(C(F)(F)F)c(Cl)c1` [drawing 17], 20.3%.
In the case of `COC(=O)N(SC(F)(Cl)Cl)c1ccc(Cl)cc1C` [drawing 13], the “Disease infestation in %” value is on record as 31.3%.
In the case of `COC(=O)N(SC(F)(Cl)Cl)c1ccc(C)c(Cl)c1` [drawing 11], the “Disease infestation in %” value was 39.4%.
With `COC(=O)N(SC(Cl)(Cl)Cl)c1ccccc1` [drawing 18], the “Disease infestation in %” value worked out at 20.3%.
Same read-out and setting: the result for `COC(=O)N(SC(F)(Cl)Cl)c1ccc(Cl)cc1` [drawing 26] reads 37.7%.
On the same count and under the same terms, the result for `COC(=O)N(SC(F)(Cl)Cl)c1ccc(Cl)c(Cl)c1` [drawing 25] reads 14.5%.
Still for that read-out and setting: next, `COc1ccc(N(SC(F)(Cl)Cl)C(=O)OC(C)C)cc1OC`: 25.0%.
With `COC(=O)N(SC(F)(Cl)Cl)c1cc(Cl)cc(Cl)c1` [drawing 15], the “Disease infestation in %” value came out at 30.3%.
For the molecule `COC(=O)N(SC(F)(Cl)Cl)c1cc(Cl)c(OC)c(Cl)c1`, the “Disease infestation in %” value stood at 25.0%.
On to `COC(=O)N(SC(F)(Cl)Cl)c1ccc(OC)c(OC)c1`, for which the “Disease infestation in %” value worked out at 0.0%.
The same measure, in the same setting: next, `CCOc1ccc(N(SC(F)(Cl)Cl)C(=O)OC)cc1`: 29.4%.

A further experiment has as its system Chaetomium globosum. The experiment can be described thus: Minimum inhibitory concentration (MIC) in agar, Chaetomium globosum. To be noted: 336 h, 28° C., two weeks. The class given is cell-based. On the procedure:
as §1
Turning to `COC(=O)N(SC(F)(Cl)Cl)c1ccc(C)c(Cl)c1` [Example 31], the MIC is below 20 µg/mL.
Consider `COC(=O)N(SC(F)(Cl)Cl)c1cccc(Cl)c1` [Example 9], for which the MIC was below 20 µg/mL.
Same read-out and setting: the result for `COC(=O)N(SC(F)(Cl)Cl)c1ccc(Cl)cc1` [Example 1] reads below 20 µg/mL.
`COC(=O)N(SC(Cl)(Cl)Cl)c1ccccc1` [Example 41] registered an MIC of 2 µg/mL (≈ 6.65 µM).
Still for that read-out and setting: next, `COC(=O)N(SC(F)(Cl)Cl)c1ccc(Cl)cc1Cl` [Example 16]: below 20 µg/mL; `CCOC(=O)N(SC(F)(Cl)Cl)c1cc(Cl)cc(Cl)c1` [Example 23]: 10 µg/mL (≈ 27.2 µM); `COC(=O)N(SC(F)(Cl)Cl)c1cccc(Cl)c1Cl` [Example 14]: below 20 µg/mL.
Still for that read-out and setting: the result for `COC(=O)N(SC(F)(Cl)Cl)c1ccc(Cl)c(Cl)c1` [Example 18] reads below 20 µg/mL; that for `COC(=O)N(SC(F)(Cl)Cl)c1ccc(Cl)cc1C` [Example 29], below 20 µg/mL.

A further experiment has as its system Pyricularia oryzae.
Assay: not given
Type of experiment: in vivo. To be noted: rice, protective; active compound concentration 0.025 %; 4 days after inoculation.
Turning to `O=C(OCc1ccccc1)N(SC(F)(Cl)Cl)c1ccccc1` [drawing 36], the “Disease infestation in %” value was found to be 0%.
As to `COCCOC(=O)N(SC(F)(Cl)Cl)c1ccccc1`, the “Disease infestation in %” value is 30%.
Still for that read-out and setting: next, `O=C(OCc1ccc(Cl)c(Cl)c1)N(SC(F)(Cl)Cl)c1ccccc1`: 10%.

The test system of the next experiment is Penicillium glaucum. The experiment can be described thus: Minimum inhibitory concentration (MIC) in agar, Penicillium glaucum. The class given is cell-based. To be noted: 336 h, 28° C., two weeks. On the procedure:
as §1
Take `COC(=O)N(SC(F)(Cl)Cl)c1ccc(C)c(Cl)c1` [Example 31]: the MIC was below 20 µg/mL.
The same measure, in the same setting: next, `COC(=O)N(SC(F)(Cl)Cl)c1cccc(Cl)c1` [Example 9]: below 20 µg/mL; `COC(=O)N(SC(F)(Cl)Cl)c1ccc(Cl)cc1` [Example 1]: below 20 µg/mL.
In turn, `COC(=O)N(SC(Cl)(Cl)Cl)c1ccccc1` [Example 41] had a minimal inhibitory concentration (MIC) of 20 µg/mL (≈ 66.5 µM).
Same read-out and setting: next, `COC(=O)N(SC(F)(Cl)Cl)c1ccc(Cl)cc1Cl` [Example 16]: below 20 µg/mL.
Turning to `CCOC(=O)N(SC(F)(Cl)Cl)c1cc(Cl)cc(Cl)c1` [Example 23], the MIC stood at 7.5 µg/mL (≈ 20.4 µM).
Still for that read-out and setting: the result for `COC(=O)N(SC(F)(Cl)Cl)c1cccc(Cl)c1Cl` [Example 14] reads below 20 µg/mL; that for `COC(=O)N(SC(F)(Cl)Cl)c1ccc(Cl)c(Cl)c1` [Example 18], below 20 µg/mL.
On the same count and under the same terms, the result for `COC(=O)N(SC(F)(Cl)Cl)c1ccc(Cl)cc1C` [Example 29] reads below 20 µg/mL.

The test system of a further experiment is Lentinus tigrinus. Nature of the experiment: Minimum inhibitory concentration (MIC) in agar, Lentinus tigrinus. The class given is cell-based. To be noted: 336 h, 28° C., two weeks. On the procedure:
as §1
For the molecule `COC(=O)N(SC(Cl)(Cl)Cl)c1ccccc1` [Example 41], the MIC turned out to be 0.5 µg/mL (≈ 1.66 µM).
On the same count and under the same terms, next, `CCOC(=O)N(SC(F)(Cl)Cl)c1cc(Cl)cc(Cl)c1` [Example 23]: 1 µg/mL (≈ 2.72 µM).

As a reminder, the MIC is the smallest concentration in the dilution series that meets the test's criterion for growth inhibition. The low end stands for a more susceptible organism, the high end for a less susceptible organism.
